Results taken from patent publication EP4660190A1, “PHARMACEUTICALLY ACCEPTABLE SALT OF COMPOUND AND PREPARATION METHOD THEREFOR” (Jiangsu Chia Tai Fenghai Pharmaceutical Co., Ltd., priority 2023, dated 2024).
Read-outs that look alike come from different tables or passages of the source. Each block holds one compound with its values, some of them ahead of it.

What was measured:
[1] = system: MPTP-induced Parkinson's disease model mice; assay: MPTP-induced mouse Parkinson's disease model, TH-positive cell counts in the substantia nigra pars compacta; format: in vivo, C57 mice; conditions: positive control 20 mg/kg daily, four weeks, mean ± SD
[2] = system: MPTP-induced Parkinson's disease model mice; assay: MPTP-induced mouse Parkinson's disease model, striatal dopamine (DOPA) detection; format: in vivo, C57 mice; conditions: striatum; positive control 20 mg/kg daily, four weeks; mean ± SD
[3] = system: MPTP-induced Parkinson's disease model mice; assay: MPTP-induced mouse Parkinson's disease model, grip strength test; conditions: positive control 20 mg/kg group; Before Modeling; mean ± SD
[4] = system: MPTP-induced Parkinson's disease model mice; assay: MPTP-induced mouse Parkinson's disease model, TH-positive fiber content in the striatum; format: in vivo, C57 mice; conditions: positive control 20 mg/kg daily, four weeks, mean ± SD
[5] = system: MPTP-induced Parkinson's disease model mice; assay: MPTP-induced mouse Parkinson's disease model, pole test; format: in vivo, C57 mice; conditions: mean ± SD
[6] = system: TDP-43-A315T transgenic mice of ALS model; assay: TDP-43-A315T ALS mice, muscle tone test; format: in vivo; conditions: 25 mg/kg p.o., Mean±SEM
[7] = system: TDP-43-A315T transgenic mice of ALS model; assay: TDP-43-A315T ALS mice, rotarod test; format: in vivo; conditions: 25 mg/kg p.o., Mean±SEM
[8] = system: rat spinal cord injury model; assay: Rat spinal cord injury model, BBB locomotor scores; format: in vivo, Male SD rats; conditions: 180 mg/kg single iv, mean±SD
From the text: The scoring method is as follows: [table]

[9] = system: rat spinal cord injury model; assay: Rat spinal cord injury model, pathological changes; conditions: 180 mg/kg single iv; spinal cord histopathology
[10] = system: rat spinal cord injury model; assay: Rat spinal cord injury model, Neurofilament 200 (NF200) expression; format: in vivo, Male SD rats; conditions: 180 mg/kg single iv, mean±SD, n=6

Compound: CCC/C(O)=C1/C(=O)Oc2ccccc21.[Mg] [Example 5, (Z)-3-(1-hydroxybutylidene)benzofuran-2-one magnesium salt]
Appearance (0 h): White solid | Purity (0 h): 99.67% | Appearance (High Humidity 75%, 10 d): White solid | Purity (High Humidity 75%, 10 d): 99.83% | Appearance (High Humidity 92.5%, 10 d): White solid | Purity (High Humidity 92.5%, 10 d): 99.79% | Appearance (High temperature 40°C, 10 d): White solid | Purity (High temperature 40°C, 10 d): 99.82% | Appearance (High temperature 60°C, 10 d): White solid | Purity (High temperature 60°C, 10 d): 99.58% | Appearance (Light, 10 d): White solid | Purity (Light, 10 d): 99.72%

Compound: CC/C=C(\O)C1C(=O)Oc2ccccc21.[Ca] (centres unmarked) [Example 6, (Z)-3-(1-hydroxybutenyl)benzofuran-2-one calcium salt]
Appearance (0 h): White solid | Purity (0 h): 99.42% | Appearance (High Humidity 75%, 10 d): White solid | Purity (High Humidity 75%, 10 d): 99.56% | Appearance (High Humidity 92.5%, 10 d): White solid | Purity (High Humidity 92.5%, 10 d): 99.44% | Appearance (High temperature 40°C, 10 d): White solid | Purity (High temperature 40°C, 10 d): 99.58% | Appearance (High temperature 60°C, 10 d): White solid | Purity (High temperature 60°C, 10 d): 99.68% | Appearance (Light, 10 d): White solid | Purity (Light, 10 d): 99.43%

Compound: CCC/C(O)=C1/C(=O)Oc2ccccc21.NCCO [Example 8]
Appearance (0 h): White solid | Purity (0 h): 99.19% | Appearance (High Humidity 75%, 10 d): White solid | Purity (High Humidity 75%, 10 d): 99.71% | Appearance (High Humidity 92.5%, 10 d): White solid | Purity (High Humidity 92.5%, 10 d): 99.79% | Appearance (High temperature 40°C, 10 d): White solid | Purity (High temperature 40°C, 10 d): 99.75% | Appearance (High temperature 60°C, 10 d): White solid | Purity (High temperature 60°C, 10 d): 99.75% | Appearance (Light, 10 d): White solid | Purity (Light, 10 d): 99.78%

Compound: N[C@@H](Cc1ccc(O)c(O)c1)C(=O)O [Levodopa, reference compound]
TH-Positive Cell counts [1]: 31.50±4.14^& | DOPA [2]: 1156.72±375.72^& ng/g | Grip Strength Test [3]: 272.61 ± 9.01 g | TH-Positive Fiber Content [4]: 536968.78±68050.46^& | TH-Positive Fiber Content ([4]; listed as levodopa): 536,968.78±68,050.46 | Pole test results ([5]; positive control 20 mg/kg daily, four weeks, Study Endpoint): 8.76 ± 1.57 s | Pole test results ([5]; positive control 20 mg/kg group, Before Modeling): 9.40 ± 1.62 s

Compound: Nc1nc2ccc(OC(F)(F)F)cc2s1 [Riluzole, reference compound]
Muscle Tone ([6]; female mice, animal age 6 weeks): 145.2 ± 5.444 g | Muscle Tone ([6]; female mice, animal age 8 weeks): 177.8 ± 9.836 g | Muscle Tone ([6]; female mice, animal age 10 weeks): 133.6 ± 12.04 g | Muscle Tone ([6]; female mice, animal age 12 weeks): 161.5 ± 3.666 g | Muscle Tone ([6]; female mice, animal age 13 weeks): 146.4 ± 6.928 g | Muscle Tone ([6]; female mice, animal age 14 weeks): 143.1 ± 9.165 g | Muscle Tone ([6]; female mice, animal age 16 weeks): 149.0 ± 6.827 g | Muscle Tone ([6]; male mice, animal age 6 weeks): 144.0 ± 10.127 g | Muscle Tone ([6]; male mice, animal age 8 weeks): 152.4 ± 10.35 g | Muscle Tone ([6]; male mice, animal age 10 weeks): 150.5 ± 14.46 g | Muscle Tone ([6]; male mice, animal age 12 weeks): 145.4 ± 5.551 g | Muscle Tone ([6]; male mice, animal age 13 weeks): 147.8 ± 1.650 g | Muscle Tone ([6]; male mice, animal age 14 weeks): 129.2 ± 1.250 g | Rotarod performance ([7]; female mice, Dosing Schedule (weeks) 2): 269.8 ± 5.164 s | Rotarod performance ([7]; female mice, Dosing Schedule (weeks) 4): 258.8 ± 15.65 s | Rotarod performance ([7]; female mice, Dosing Schedule (weeks) 6): 275.3 ± 9.266 s | Rotarod performance ([7]; female mice, Dosing Schedule (weeks) 8): 272.3 ± 10.56 s | Rotarod performance ([7]; female mice, Dosing Schedule (weeks) 10): 238.4 ± 16.32 s | Rotarod performance ([7]; female mice, Dosing Schedule (weeks) 12): 252.3 ± 16.24 s | Rotarod performance ([7]; female mice, Dosing Schedule (weeks) 14): 270.6 ± 12.70 s | Rotarod performance ([7]; female mice, Dosing Schedule (weeks) 16): 255.9 ± 17.39 s | Rotarod performance ([7]; male mice, Dosing Schedule (weeks) 6): 250.8 ± 12.71 s | Rotarod performance ([7]; male mice, Dosing Schedule (weeks) 8): 236.4 ± 16.14 s | Rotarod performance ([7]; male mice, Dosing Schedule (weeks) 10): 234.0 ± 10.64 s | Rotarod performance ([7]; male mice, Dosing Schedule (weeks) 11): 215.6 ± 31.32 s | Rotarod performance ([7]; male mice, Dosing Schedule (weeks) 12): 202.4 ± 41.22 s | Rotarod performance ([7]; male mice, Dosing Schedule (weeks) 13): 135.32 ± 76.92 s

Compound: C[C@H]1C[C@@H]2[C@H]([C@@H](O)C[C@@]3(C)[C@H]2CC[C@]3(O)C(=O)COC(=O)CCC(=O)O)[C@@]2(C)C=CC(=O)C=C12 [methylprednisolone succinate]
BBB Locomotor Scores ([8]; 3 d after dosing): 0.1± 0.3 | BBB Locomotor Scores ([8]; 7 d after dosing): 2.8± 1.9 | BBB Locomotor Scores ([8]; 14 d after dosing): 5.7±4.5 | BBB Locomotor Scores ([8]; 28 d after dosing): 7.9±3.4 | BBB Locomotor Scores ([8]; Before dosing): 0± 0 | cases showing a reduction in lesions [9]: 3 out of 6 | Positive Count (number per field of view) [10]: 22.2± 6.3 number per field of view

Compound: (Z)-3-(1-hydroxybutenyl)benzofuran-2-one meglumine salt [Example 9]
Appearance (0 h): White solid | Purity (0 h): 99.53% | Appearance (High Humidity 75%, 10 d): White solid | Purity (High Humidity 75%, 10 d): 99.01% | Appearance (High Humidity 92.5%, 10 d): Yellow oily liquid | Purity (High Humidity 92.5%, 10 d): 98.62% | Appearance (High temperature 40°C, 10 d): White solid | Purity (High temperature 40°C, 10 d): 99.45% | Appearance (High temperature 60°C, 10 d): White solid | Purity (High temperature 60°C, 10 d): 98.04% | Appearance (Light, 10 d): White solid | Purity (Light, 10 d): 99.60%

Appearance (0 h): White solid | Purity (0 h): 99.41% | Appearance (High Humidity 75%, 10 d): White solid | Purity (High Humidity 75%, 10 d): 99.34% | Appearance (High Humidity 92.5%, 10 d): White solid | Purity (High Humidity 92.5%, 10 d): 99.47% | Appearance (High temperature 40°C, 10 d): White solid | Purity (High temperature 40°C, 10 d): 99.66% | Appearance (High temperature 60°C, 10 d): White solid | Purity (High temperature 60°C, 10 d): 99.58% | Appearance (Light, 10 d): White solid | Purity (Light, 10 d): 99.41%
Compound: (Z)-3-(1-hydroxybutenyl)benzofuran-2-one potassium salt [Example 4]

Impurities RRT1.41 (0 h): 0.10 | Impurities RRT1.47 (0 h): 0.11 | Impurities Total impurities (0 h): 0.21 | Impurities RRT1.41 (High Humidity 75%, 10 d): 0.12 | Impurities RRT1.47 (High Humidity 75%, 10 d): 0.10 | Impurities Total impurities (High Humidity 75%, 10 d): 0.22 | Impurities RRT1.41 (High temperature 60°C, 10 d): 0.14 | Impurities RRT1.47 (High temperature 60°C, 10 d): 0.09 | Impurities Total impurities (High temperature 60°C, 10 d): 0.23 | Impurities RRT1.41 (Light, 10 d): 0.07 | Impurities RRT1.47 (Light, 10 d): 0.09 | Impurities Total impurities (Light, 10 d): 0.16
Compound: (Z)-3-(1-hydroxybutenyl)benzofuran-2-one sodium salt [Example 2]

Compound: (Z)-3-(1-hydroxybutylidene)benzofuran-2-one piperazine salt [Example 7]
Appearance (0 h): Light yellow solid | Purity (0 h): 99.59% | Appearance (High Humidity 75%, 10 d): Light yellow solid | Purity (High Humidity 75%, 10 d): 99.66% | Appearance (High Humidity 92.5%, 10 d): Light yellow solid | Purity (High Humidity 92.5%, 10 d): 99.54% | Appearance (High temperature 40°C, 10 d): Light yellow solid | Purity (High temperature 40°C, 10 d): 99.67% | Appearance (High temperature 60°C, 10 d): Light yellow solid | Purity (High temperature 60°C, 10 d): 99.72% | Appearance (Light, 10 d): Light yellow solid | Purity (Light, 10 d): 99.43%
